The supplement of paper PMC10883282
± gives the standard deviation of the averaged measurements.

Tests used:
Assay in all cases: relative viability vs DMSO control (72 h) (fraction); higher = more viable cells
[1] = test system: A204
In short: (§1)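 Serially diluted compound, 2.5 µl from source plates spanning 10 mM to 0.0002 mM, was added 24 h after sarcoma cell lines were seeded in 384-well plates at densities targeting 80–90% confluence. Plates then sat 72 h at 37 °C, 5% CO2, with 0.1% DMSO vehicle and a 5 µM positive control. Relative viability came from ATPLite as percent growth, averaged over up to triplicate wells, and was rescaled with 1 as full and 0 as none.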

[2] = test system: G401
In short: as §1

[3] = test system: HS729
In short: as §1

[4] = test system: KHOS-NP
In short: as §1

[5] = test system: MES-SA
In short: as §1

[6] = test system: RD
In short: as §1

[7] = test system: SK-ES-1
In short: as §1

[8] = test system: SK-LMS-1
In short: as §1

[9] = test system: SW684
In short: as §1

[10] = test system: SW872
In short: as §1

[11] = test system: SYO-1
In short: as §1

[12] = test system: VA-ES-BJ
In short: as §1

CN(C)C/C=C/C(=O)Nc1cc2c(Nc3ccc(F)c(Cl)c3)ncnc2cc1O[C@H]1CCOC1 [Afatinib]
Conditions | relative viability
[1], 0.00017 µM | 0.993 ± 0.055
[1], 0.00051 µM | 1 ± 0.053
[1], 0.00152 µM | 1.03 ± 0.042
[1], 0.00457 µM | 0.976 ± 0.085
[1], 0.01372 µM | 1.01 ± 0.081
[1], 0.04115 µM | 0.945 ± 0.051
[1], 0.1235 µM | 0.859 ± 0.046
[1], 0.3704 µM | 0.595 ± 0.067
[1], 1.111 µM | 0.34 ± 0.017
[1], 3.333 µM | 0.175 ± 0.021
[1], 10 µM | 0.00583 ± 0.0022
[2], 0.00017 µM | 1.02 ± 0.019
[2], 0.00051 µM | 1.03 ± 0.054
[2], 0.00152 µM | 1.015 ± 0.0047
[2], 0.00457 µM | 1.03 ± 0.021
[2], 0.01372 µM | 1.03 ± 0.036
[2], 0.04115 µM | 0.9814 ± 0.0069
[2], 0.1235 µM | 0.97 ± 0.039
[2], 0.3704 µM | 0.846 ± 0.037
[2], 1.111 µM | 0.61 ± 0.0089
[2], 3.333 µM | 0.472 ± 0.06
[2], 10 µM | 0.212 ± 0.19
[3], 0.00017 µM | 1.07 ± 0.046
[3], 0.00051 µM | 0.975 ± 0.051
[3], 0.00152 µM | 0.989 ± 0.04
[3], 0.00457 µM | 0.953 ± 0.057
[3], 0.01372 µM | 0.958 ± 0.033
[3], 0.04115 µM | 0.968 ± 0.035
[3], 0.1235 µM | 0.937 ± 0.019
[3], 0.3704 µM | 0.802 ± 0.033
[3], 1.111 µM | 0.667 ± 0.026
[3], 3.333 µM | 0.529 ± 0.035
[3], 10 µM | 0.007367 ± 5.8e-05
[4], 0.00017 µM | 1.09 ± 0.018
[4], 0.00051 µM | 1.08 ± 0.016
[4], 0.00152 µM | 1.07 ± 0.025
[4], 0.00457 µM | 1.07 ± 0.019
[4], 0.01372 µM | 1.07 ± 0.025
[4], 0.04115 µM | 1.07 ± 0.032
[4], 0.1235 µM | 1.06 ± 0.046
[4], 0.3704 µM | 1.08 ± 0.019
[4], 1.111 µM | 1.02 ± 0.046
[4], 3.333 µM | 0.967 ± 0.048
[4], 10 µM | 0.0212 ± 0.012
[5], 0.00017 µM | 0.967 ± 0.036
[5], 0.00051 µM | 0.955 ± 0.039
[5], 0.00152 µM | 0.948 ± 0.037
[5], 0.00457 µM | 0.947 ± 0.035
[5], 0.01372 µM | 0.934 ± 0.041
[5], 0.04115 µM | 0.887 ± 0.027
[5], 0.1235 µM | 0.885 ± 0.038
[5], 0.3704 µM | 0.725 ± 0.024
[5], 1.111 µM | 0.452 ± 0.018
[5], 3.333 µM | 0.283 ± 0.04
[5], 10 µM | 0.24 ± 0.099
[6], 0.00017 µM | 1.08 ± 0.036
[6], 0.00051 µM | 1.13 ± 0.097
[6], 0.00152 µM | 1.15 ± 0.059
[6], 0.00457 µM | 1.11 ± 0.074
[6], 0.01372 µM | 1.11 ± 0.061
[6], 0.04115 µM | 1.07 ± 0.1
[6], 0.1235 µM | 1.09 ± 0.12
[6], 0.3704 µM | 1.03 ± 0.086
[6], 1.111 µM | 0.569 ± 0.061
[6], 3.333 µM | 0.0531 ± 0.046
[6], 10 µM | 0.022 ± 0.0053
[7], 0.00017 µM | 1.01 ± 0.04
[7], 0.00051 µM | 1.05 ± 0.042
[7], 0.00152 µM | 1.04 ± 0.024
[7], 0.00457 µM | 0.988 ± 0.027
[7], 0.01372 µM | 1.03 ± 0.007
[7], 0.04115 µM | 0.959 ± 0.053
[7], 0.1235 µM | 0.858 ± 0.034
[7], 0.3704 µM | 0.676 ± 0.022
[7], 1.111 µM | 0.306 ± 0.013
[7], 3.333 µM | 0.117 ± 0.019
[7], 10 µM | 0.113 ± 0.023
[8], 0.00017 µM | 1.1 ± 0.056
[8], 0.00051 µM | 1.1 ± 0.016
[8], 0.00152 µM | 1.11 ± 0.027
[8], 0.00457 µM | 1.08 ± 0.029
[8], 0.01372 µM | 1.13 ± 0.048
[8], 0.04115 µM | 1.04 ± 0.05
[8], 0.1235 µM | 1.01 ± 0.034
[8], 0.3704 µM | 0.879 ± 0.011
[8], 1.111 µM | 0.724 ± 0.021
[8], 3.333 µM | 0.462 ± 0.09
[8], 10 µM | 0.135 ± 0.2
[9], 0.00017 µM | 1.18 ± 0.045
[9], 0.00051 µM | 1.18 ± 0.038
[9], 0.00152 µM | 1.23 ± 0.062
[9], 0.00457 µM | 1.18 ± 0.022
[9], 0.01372 µM | 1.14 ± 0.029
[9], 0.04115 µM | 1.13 ± 0.029
[9], 0.1235 µM | 1.1 ± 0.037
[9], 0.3704 µM | 1.04 ± 0.051
[9], 1.111 µM | 0.816 ± 0.011
[9], 3.333 µM | 0.527 ± 0.019
[9], 10 µM | 0.203 ± 0.15
[10], 0.00017 µM | 1.07 ± 0.036
[10], 0.00051 µM | 1.14 ± 0.039
[10], 0.00152 µM | 1.09 ± 0.012
[10], 0.00457 µM | 1.11 ± 0.065
[10], 0.01372 µM | 1.07 ± 0.04
[10], 0.04115 µM | 1.06 ± 0.057
[10], 0.1235 µM | 1.02 ± 0.07
[10], 0.3704 µM | 0.896 ± 0.057
[10], 1.111 µM | 0.595 ± 0.011
[10], 3.333 µM | 0.304 ± 0.0056
[10], 10 µM | 0.257 ± 0.079
[11], 0.00017 µM | 1.03 ± 0.049
[11], 0.00051 µM | 1.01 ± 0.016
[11], 0.00152 µM | 0.979 ± 0.03
[11], 0.00457 µM | 0.949 ± 0.036
[11], 0.01372 µM | 0.957 ± 0.063
[11], 0.04115 µM | 0.946 ± 0.022
[11], 0.1235 µM | 0.903 ± 0.042
[11], 0.3704 µM | 0.838 ± 0.022
[11], 1.111 µM | 0.5276 ± 0.003
[11], 3.333 µM | 0.00877 ± 0.0057
[11], 10 µM | -0.00643 ± 0.0018
[12], 0.00017 µM | 1.09 ± 0.064
[12], 0.00051 µM | 1.1 ± 0.052
[12], 0.00152 µM | 1.06 ± 0.042
[12], 0.00457 µM | 1.03 ± 0.055
[12], 0.01372 µM | 0.983 ± 0.04
[12], 0.04115 µM | 0.974 ± 0.064
[12], 0.1235 µM | 0.968 ± 0.064
[12], 0.3704 µM | 0.911 ± 0.022
[12], 1.111 µM | 0.573 ± 0.027
[12], 3.333 µM | 0.351 ± 0.036
[12], 10 µM | 0.207 ± 0.0046
